Laboratory results reported in US20180327807A1, “ASSAY FOR DETERMINING ANTIBIOTICS IN WASTE” (DSM Sinochem Pharmaceuticals Netherlands B.V., priority 2015, published 2018).

System: microorganism in the agar layer
Assay: Delvotest SP NT microbial growth inhibition assay, colour of the agar indicator, with or without added milk
Assay type: cell-based
Conditions: 2 ppb test solution, with added milk or added water, 60 to 210 min
Experimental: From all samples solutions 100 μl is brought in the Delvotest SP NT Ampoule with an Eppendorf pipet of 100 μl. With the point of the pipet the tube cover top of the ampoule will be penetrated and the 100 μl is added to the ampoule. Put the ampoules for 2.5 h in a water bath of 65° C. Seal the ampoule with tape. After 2.5 h the ampoules are removed from the water bath. Check if the blanks are yellow, if not prolong the time in the water bath with 30 min. Yellow is negative and purple is positive. Positive means there is antimicrobial activity present in the sample which is higher than 2 ppb (calculated as penicillin G K). Two samples, a blank (water) and 2 ppb penicillin G K test solution were analysed using commercially available (DSM Food Specialties B.V., Delft, The Netherlands) Delvotest SP NT analogous to the supplier's manual. Two ampoules were filled with blank sample. To one milk (regular low-fat milk from a Dutch supermarket was used in the present example) was added according to the instruction as outlined in Example 1 and to the other the same amount of water was added. […] The ampoules filled with sample were incubated at 64° C.+/−2° C.) and the colour of the agar in the ampoules was visually recorded at several points in time. […]

SMILES: CC1(C)S[C@@H]2[C@H](NC(=O)Cc3ccccc3)C(=O)N2[C@H]1C(=O)[O-].[K+] [Penicillin G K test solution, penicillin G K]
- colour change of the indicator (inhibiting effect on growth of the microorganism): do not show any colour change
